Several values for one entry are separate records, joined by “and”; a condition that tells them apart may be missing. Identical values can stand only once. Toxic doses and inconclusive results are not listed. No stated cut-off is given here; in the data, active means T/C of 150% or more; inactive means T/C below 125%.
System: L1210 leukemia ip in BDF1 mice, survival T/C
Assay: NCI In Vivo Anticancer Drug Screen. Data for tumor model L1210 Leukemia (intraperitoneal) in B6D2F1 (BDF1) mice
Settings: endpoint: mean survival time, higher = longer survival
Procedure, shortened: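 Mice bearing the transplanted tumor received compound or vehicle. Survival of the treated group was divided by that of the vehicle-treated control group to give the ratio.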

[1] = dose: 100.0 mg/kg/injection, schedule: Q01DX009 (ip), vehicle: Klucel (hydroxypropylcellulose) (HPC)
[2] = dose: 200.0 mg/kg/injection, schedule: Q01DX009 (ip), vehicle: Klucel (hydroxypropylcellulose) (HPC)
[3] = dose: 400.0 mg/kg/injection, schedule: Q01DX009 (ip), vehicle: Klucel (hydroxypropylcellulose) (HPC)
[4] = dose: 100.0 mg/kg/injection, schedule: Q04DX003 (ip), vehicle: Klucel (hydroxypropylcellulose) (HPC)
[5] = dose: 200.0 mg/kg/injection, schedule: Q04DX003 (ip), vehicle: Klucel (hydroxypropylcellulose) (HPC)
[6] = dose: 400.0 mg/kg/injection, schedule: Q04DX003 (ip), vehicle: Klucel (hydroxypropylcellulose) (HPC)
[7] = dose: 100.0 mg/kg/injection, schedule: Q01DX001 (ip), vehicle: saline
[8] = dose: 200.0 mg/kg/injection, schedule: Q01DX001 (ip), vehicle: saline
[9] = dose: 400.0 mg/kg/injection, schedule: Q01DX001 (ip), vehicle: saline
[10] = dose: 50.0 mg/kg/injection, schedule: Q01DX009 (ip), vehicle: saline with Tween-80
[11] = dose: 100.0 mg/kg/injection, schedule: Q01DX009 (ip), vehicle: saline with Tween-80
[12] = dose: 200.0 mg/kg/injection, schedule: Q01DX009 (ip), vehicle: saline with Tween-80
[13] = dose: 100.0 mg/kg/injection, schedule: Q01DX001 (ip), vehicle: carboxymethylcellulose (CMC)
[14] = dose: 200.0 mg/kg/injection, schedule: Q01DX001 (ip), vehicle: carboxymethylcellulose (CMC)
[15] = dose: 100.0 mg/kg/injection, schedule: Q04DX002 (ip), vehicle: saline with Tween-80
[16] = dose: 200.0 mg/kg/injection, schedule: Q04DX002 (ip), vehicle: saline with Tween-80
[17] = dose: 100.0 mg/kg/injection, schedule: Q04DX003 (ip), vehicle: saline
[18] = dose: 100.0 mg/kg/injection, schedule: Q04DX003 (ip), vehicle: saline with Tween-80
[19] = dose: 200.0 mg/kg/injection, schedule: Q04DX003 (ip), vehicle: saline with Tween-80
[20] = dose: 25.0 mg/kg/injection, schedule: Q04DX003 (ip), vehicle: Klucel (hydroxypropylcellulose) (HPC)
[21] = dose: 75.0 mg/kg/injection, schedule: Q01DX001 (ip), vehicle: saline
[22] = dose: 150.0 mg/kg/injection, schedule: Q01DX001 (ip), vehicle: saline

Measured: T/C

COC(=O)CCC(=O)c1ccc(OC)cc1
inactive: [1] 94 % of control | [2] 100 % of control | [3] 96 % of control

CC(=O)ONCCc1ccc(S(=O)(=O)F)cc1
inactive: [4] 105 % of control | [5] 96 % of control | [6] 98 % of control

C=C(Cl)CSc1ccccc1
inactive: [7] 103 % of control | [8] 103 % of control | [9] 105 % of control

CCNC(=O)NC(=O)C(C)(C)Oc1ccc(Cl)cc1
inactive: [10] 103 % of control | [11] 92 % of control | [12] 96 % of control

Nc1ncnc2c1ncn2C1OC(CO)C(O)C1O.[Cl][Pt][Cl] (centres undefined)
inactive: dose: 100.0 mg/kg/injection, schedule: Q01DX009 (ip), vehicle: water 97 % of control | dose: 100.0 mg/kg/injection, schedule: Q04DX003 (ip), vehicle: water 94 % of control | dose: 200.0 mg/kg/injection, schedule: Q01DX009 (ip), vehicle: water 103 % of control | dose: 200.0 mg/kg/injection, schedule: Q04DX003 (ip), vehicle: water 97 % of control | dose: 400.0 mg/kg/injection, schedule: Q01DX009 (ip), vehicle: water 100 % of control | dose: 400.0 mg/kg/injection, schedule: Q04DX003 (ip), vehicle: water 94 % of control

CCOc1ccccc1/C=N\NC(=S)Nc1ccc2cn[nH]c2c1
inactive: dose: 50.0 mg/kg/injection, schedule: Q01DX001 (ip), vehicle: carboxymethylcellulose (CMC) 96 % of control | [13] 100 % of control | [14] 102 % of control | dose: 400.0 mg/kg/injection, schedule: Q01DX001 (ip), vehicle: carboxymethylcellulose (CMC) 94 % of control

Cc1cc2ccccc2c(N)c1C#N
inactive: [11] 102 % of control and 106 % of control | [15] 93 % of control and 100 % of control | [12] 92 % of control and 90 % of control | [16] 91 % of control | dose: 400.0 mg/kg/injection, schedule: Q01DX009 (ip), vehicle: saline with Tween-80 95 % of control | dose: 400.0 mg/kg/injection, schedule: Q04DX002 (ip), vehicle: saline with Tween-80 100 % of control and 88 % of control

Clc1ccc(CSc2ncc(Br)c(Nc3cc(Cl)ccc3Cl)n2)cc1
inactive: dose: 50.0 mg/kg/injection, schedule: Q01DX Z (ip), vehicle: methylcellulose (MC) 96 % of control | dose: 200.0 mg/kg/injection, schedule: Q01DX Z (ip), vehicle: methylcellulose (MC) 89 % of control

CC(C)(C)C1COP(=O)(Oc2ccccc2)OC1 (centres undefined)
inactive: [13] 91 % of control | [14] 94 % of control

c1ccc2c(c1)CCc1ccccc1CN(CCN1CCCC1)C2
inactive: dose: 25.0 mg/kg/injection, schedule: Q01DX009 (ip), vehicle: Klucel (hydroxypropylcellulose) (HPC) 96 % of control | [1] 99 % of control

CC(C)OC(=O)Oc1cccc2c1C(=O)c1ccccc1C2=O
inactive: [1] 91 % of control | [4] 97 % of control | [2] 91 % of control | [5] 93 % of control | [6] 104 % of control

CC(C)(CO)NCC(C)(C)[N+](=O)[O-]
inactive: [4] 103 % of control | [5] 102 % of control | [6] 112 % of control

CN(C)P1(=O)OCC(C(C)(C)C)CO1 (centres undefined)
inactive: [17] 112 % of control

Cc1c(C)c(C)c(C(=O)O)c(C)c1C
inactive: [10] 93 % of control | [11] 90 % of control | [12] 93 % of control

C=CCn1c(-c2ccc(N(C)C)cc2)nc2c(Cl)ncnc21
inactive: dose: 5.0 mg/kg/injection, schedule: Q01DX009 (ip), vehicle: steriod suspending solution 97 % of control | dose: 9.0 mg/kg/injection, schedule: Q01DX009 (ip), vehicle: steriod suspending solution 98 % of control | dose: 14.0 mg/kg/injection, schedule: Q01DX009 (ip), vehicle: steriod suspending solution 102 % of control | dose: 24.0 mg/kg/injection, schedule: Q01DX009 (ip), vehicle: steriod suspending solution 95 % of control

CN(C)P(=O)(N(C)C)N(C)C
inactive: [7] 101 % of control | [8] 98 % of control | [9] 102 % of control | dose: 1:6400.0 dilution, schedule: Q01DX009 (ip), vehicle: saline 107 % of control

CC(C)Oc1c(N(C)CCO)c2cc(Cl)ccc2oc1=O
inactive: [18] 95 % of control | [19] 101 % of control

CCCOC(=O)COc1ccc(Cl)cc1
inactive: [1] 97 % of control | [2] 95 % of control | [3] 104 % of control

COc1cc2c(cc1OC)C(c1ccc(O)c(O)c1)CNC2 (centres undefined)
inactive: [10] 101 % of control | [11] 100 % of control | [12] 95 % of control

Cc1ccc(S(=O)(=O)N2CCCC(=O)c3ccc(Cl)cc32)cc1
inactive: [1] 101 % of control | [4] 96 % of control | [2] 104 % of control | [5] 100 % of control | [3] 95 % of control | [6] 91 % of control

CCC(CC)(COS(=O)(=O)c1ccc(C)cc1)COS(=O)(=O)c1ccc(C)cc1
inactive: [1] 93 % of control | [2] 89 % of control | [5] 94 % of control | [3] 88 % of control | [6] 96 % of control

O=C(COc1ccccc1[N+](=O)[O-])Nc1cccnc1
inactive: [18] 104 % of control | [19] 98 % of control | dose: 400.0 mg/kg/injection, schedule: Q04DX003 (ip), vehicle: saline with Tween-80 98 % of control

C=C1C(=O)OC2/C=C(\C)C(O)C/C=C(/C)CCC12 (centres undefined)
inactive: [20] 96 % of control | dose: 50.0 mg/kg/injection, schedule: Q04DX003 (ip), vehicle: Klucel (hydroxypropylcellulose) (HPC) 102 % of control | [4] 100 % of control

C[N+](C)(C)Cn1nnc2ccccc21
inactive: [21] 105 % of control | [22] 108 % of control

CNC(CO)C1CCCCC1 (centres undefined)
inactive: [21] 100 % of control | [22] 102 % of control | dose: 300.0 mg/kg/injection, schedule: Q01DX001 (ip), vehicle: saline 101 % of control

O=C1C2CCCC3CCCC(C(=O)N1NC1CCCCC1)C32 (centres undefined)
inactive: [15] 93 % of control | [16] 86 % of control

COc1ccc(C2(OC)Oc3ccccc3-c3nc4ccccc4nc32)cc1 (centres undefined)
inactive: dose: 50.0 mg/kg/injection, schedule: Q01DX001 (ip), vehicle: saline 95 % of control | [7] 95 % of control | [8] 87 % of control | [9] 95 % of control

CC(=O)Oc1ccc(N2C(=O)C=CC2=O)cc1
inactive: dose: 3.12 mg/kg/injection, schedule: Q01DX009 (ip), vehicle: Klucel (hydroxypropylcellulose) (HPC) 97 % of control | dose: 6.25 mg/kg/injection, schedule: Q01DX009 (ip), vehicle: Klucel (hydroxypropylcellulose) (HPC) 96 % of control | dose: 12.5 mg/kg/injection, schedule: Q01DX009 (ip), vehicle: Klucel (hydroxypropylcellulose) (HPC) 100 % of control | [20] 118 % of control

CC(=O)Nc1ccc(N)c(NC(C)=O)n1
inactive: [17] 97 % of control | dose: 200.0 mg/kg/injection, schedule: Q04DX003 (ip), vehicle: saline 95 % of control | dose: 400.0 mg/kg/injection, schedule: Q04DX003 (ip), vehicle: saline 109 % of control

CCCCCC1CCC(C(=O)O)CC1 (centres undefined)
inactive: [18] 88 % of control | [19] 93 % of control

— PubChem BioAssay AID248 (DTP/NCI, 2004)
